Measurements as given in patent publication US9617310B2 (priority 2013, dated 2017).

How the values were obtained:
[1] = tested on: genotype 3a transient HCV replicon (S52) in Huh-7-derived cells; experiment: Transient-transfected HCV replicon, genotype 3a wild type; format: cell-based; settings: Hepatitis C virus; transient-transfected replicon genotype 3a wild type, 72 h; read-out: EC50 3A WT
[2] = tested on: NS3/4a protease inhibitor resistant variant D168A in genotype 1b transient HCV replicon; experiment: Transient-transfected HCV replicon, genotype 1b D168A; format: cell-based; settings: Hepatitis C virus, 72 h, read-out: EC50 1B D168A
[3] = tested on: NS3/4a protease inhibitor resistant variant R155K in genotype 1a transient HCV replicon; experiment: Transient-transfected HCV replicon, genotype 1a R155K; format: cell-based; settings: Hepatitis C virus, 72 h, read-out: EC50 1A R155K
[4] = tested on: genotype 2a stable HCV replicon (JFH-1) in Huh-7-derived cells; experiment: Stable subgenomic HCV replicon, genotype 2a, Renilla luciferase; format: cell-based; settings: Hepatitis C virus, stable replicon genotype 2a, 72 h, read-out: EC50 2A RLUC
[5] = target: T1, NS3 genotype 1b protease (Hepatitis C virus genotype 1b, UniProt Q9WMX2, E1202G); experiment: Ki determination, NS3 protease genotype 1b (fluorogenic depsipeptide substrate); format: biochemical; settings: NS3 protease domain genotype 1b, NS4A peptide
T1 construct: Purified NS3 protease domain (amino acids 1-181) of the genotype 1b and 3a virus were generated as above; K3 hexahistidine tag (N); rTEV protease cleavage site (N); made in house; host or cells: E. coli BL21AI
Outline: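 NS3 protease domain (aa 1-181), 50 pM (1b) or 200 pM (3a), with 20 μM NS4A peptide, pre-incubated 1 h with inhibitor (100 nM–5 pM); 4 μM (1b) or 2 μM (3a) FRET depsipeptide substrate, room temperature, pH-unspecified HEPES buffer with 40% glycerol, 10% DMSO. Steady-state rates at 90–120 min (ex 340/em 490); Morrison fit gave Ki^app, corrected to Ki via substrate/Km.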

[6] = tested on: genotype 1b stable HCV replicon (Con1) in Huh-7-derived cells; experiment: Stable subgenomic HCV replicon, genotype 1b, Renilla luciferase; format: cell-based; settings: Hepatitis C virus, stable replicon genotype 1b, 72 h, read-out: EC50 1B RLUC
Outline: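 Replicons carry hRLuc-neo, EMCV IRES and NS3-NS5B with adaptive mutations: 1a H77 P1496L/S2204I, 1b Con1 E1202G/T1280I/K1846T, 4a ED43 Q1691R/S2204I. EC50 came from non-linear regression versus DMSO and a triple-inhibitor full-inhibition control.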

T1 sequence (Q9WMX2 1027-1207 E1202G, other chains not shown): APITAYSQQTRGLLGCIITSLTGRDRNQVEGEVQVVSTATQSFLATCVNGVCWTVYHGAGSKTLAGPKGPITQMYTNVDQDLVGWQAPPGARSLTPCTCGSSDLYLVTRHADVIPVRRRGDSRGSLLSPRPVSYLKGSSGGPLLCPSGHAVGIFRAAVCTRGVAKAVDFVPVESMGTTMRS

Row | SMILES | EC50 [1] [nM] | EC50 [2] [nM] | EC50 [3] [nM] | EC50 [4] [nM] | Ki [5] [nM] | EC50 [6] [nM]
1 | CC(C)(C)[C@@H]1NC(=O)O[C@@H]2C[C@@H]3C[C@@H]3[C@H]2CCCCCc2nc3ccc(F)cc3nc2O[C@@H]2C[C@@H](C(=O)N[C@]3(C(=O)NS(=O)(=O)C4CC4)C[C@H]3C(F)F)N(C2)C1=O [Example 12, (1aS,2aR,6S,9S,11R,23aR,23bS)-6-tert-butyl-N-[(1R,2R)-1-[(cyclopropylsulfonyl)carbamoyl]-2-(difluoromethyl)cyclopropyl]-15-fluoro-4,7-dioxo-1a,2,2a,4,5,6,7,10,11,19,20,21,22,23,23a,23b-hexadecahydro-1H,9H-8,11-methanocyclopropa[4′,5′]cyclopenta[1′,2′:18,19][1,10,3,6]dioxadiazacyclononadecino[11,12-b]quinoxaline-9-carboxamide] | 22 | 15.6 | 1.9 | 2.6 | 0.02 | 1.3
2 | COc1ccc2nc3c(nc2c1)O[C@@H]1C[C@@H](C(=O)N[C@]2(C(=O)NS(=O)(=O)C4CC4)C[C@H]2C(F)F)N(C1)C(=O)[C@H](C(C)(C)C)NC(=O)O[C@@H]1C[C@@H]2C[C@@H]2[C@H]1CCCCC3 [Example 1, (1aS,2aR,6S,9S,11R,23aR,23bS)-6-tert-butyl-N-[(1R,2R)-1-[(cyclopropylsulfonyl)carbamoyl]-2-(difluoromethyl)cyclopropyl]-15-methoxy-4,7-dioxo-1a,2,2a,4,5,6,7,10,11,19,20,21,22,23,23a,23b-hexadecahydro-1H,9H-8,11-methanocyclopropa[4′,5′]cyclopenta[1′,2′:18,19][1,10,3,6]dioxadiazacyclononadecino[11,12-b]quinoxaline-9-carboxamide] | 7.1 | 4.6 | 1.5 | 2.5 | 0.02 | 0.99
3 | CC(C)(C)[C@@H]1NC(=O)O[C@@H]2C[C@@H]3C[C@@H]3[C@H]2CCCCCc2nc3ccc(F)cc3nc2O[C@@H]2C[C@@H](C(=O)N[C@]3(C(=O)NS(=O)(=O)C4(C)CC4)C[C@H]3C(F)F)N(C2)C1=O [Example 11, (1aS,2aR,6S,9S,11R,23aR,23bS)-6-tert-butyl-N-[(1R,2R)-2-(difluoromethyl)-1-{[(1-methylcyclopropyl)sulfonyl]carbamoyl}cyclopropyl]-15-fluoro-4,7-dioxo-1a,2,2a,4,5,6,7,10,11,19,20,21,22,23,23a,23b-hexadecahydro-1H,9H-8,11-methanocyclopropa[4′,5′]cyclopenta[1′,2′:18,19][1,10,3,6]dioxadiazacyclononadecino[11,12-b]quinoxaline-9-carboxamide] | 9.7 | 8.6 | 1.9 | 2 | 0.02 | 1.3
4 | COc1ccc2nc3c(nc2c1)O[C@@H]1C[C@@H](C(=O)N[C@]2(C(=O)NS(=O)(=O)C4CC4)C[C@H]2CC(F)F)N(C1)C(=O)[C@H](C(C)(C)C)NC(=O)O[C@@H]1C[C@@H]2C[C@@H]2[C@H]1CCCCC3 [Example 3, (1aS,2aR,6S,9S,11R,23aR,23bS)-6-tert-butyl-N-[(1R,2S)-1-[(cyclopropylsulfonyl)carbamoyl]-2-(2,2-difluoroethyl)cyclopropyl]-15-methoxy-4,7-dioxo-1a,2,2a,4,5,6,7,10,11,19,20,21,22,23,23a,23b-hexadecahydro-1H,9H-8,11-methanocyclopropa[4′,5′]cyclopenta[1′,2′:18,19][1,10,3,6]dioxadiazacyclononadecino[11,12-b]quinoxaline-9-carboxamide] | 67 | 50 | 11 | 15 | 0.03 | 3.2
5 | CC(C)(C)[C@@H]1NC(=O)O[C@@H]2C[C@@H]3C[C@@H]3[C@H]2CCCCC(F)(F)c2nc3cc(F)c(F)cc3nc2O[C@@H]2C[C@@H](C(=O)N[C@]3(C(=O)NS(=O)(=O)C4CC4)C[C@H]3C(F)F)N(C2)C1=O (racemic) [Example 15, (1aS,2aR,6S,9S,11R,23aR,23bS)-6-tert-butyl-N-[(1R,2R)-1-[(cyclopropylsulfonyl)carbamoyl]-2-(difluoromethyl)cyclopropyl]-15,16,19,19-tetrafluoro-4,7-dioxo-1a,2,2a,4,5,6,7,10,11,19,20,21,22,23,23a,23b-hexadecahydro-1H,9H-8,11-methanocyclopropa[4′,5′]cyclopenta[1′,2′:18,19][1,10,3,6]dioxadiazacyclononadecino[11,12-b]quinoxaline-9-carboxamide] | 11 | 4.7 | 1.2 | 3.3 | 0.03 | 3.4
6 | COc1ccc2nc3c(nc2c1)O[C@@H]1C[C@@H](C(=O)N[C@]2(C(=O)NS(=O)(=O)C4(C)CC4)C[C@H]2C(F)F)N(C1)C(=O)[C@H](C(C)(C)C)NC(=O)O[C@H]1[C@H](CCCCC3)C[C@H]2C[C@H]21 [Example 8, (1aR,1bS,5S,8S,10R,22aR,23aR)-5-tert-butyl-N-[(1R,2R)-2-(difluoromethyl)-1-{[(1-methylcyclopropyl)sulfonyl]carbamoyl}cyclopropyl]-14-methoxy-3,6-dioxo-1a,1b,3,4,5,6,9,10,18,19,20,21,22,22a, 23,23a-hexadecahydro-1H,8H-7,10-methanocyclopropa[3′,4′]cyclopenta [1′,2′:18,19][1,10,3,6]dioxadiazacyclononadecino[11,12-b]quinoxaline-8-carboxamide] | 817 | 712 | 148 | 110 | 0.04 | 55
